From BindingDB's records for doi:10.1021/jm00018a011 (Pfizer, 1995)

biological target: Platelet-activating factor receptor (Oryctolagus cuniculus); assay: Antagonistic activity was tested against Platelet-Activating Factor-induced aggregation of rabbit washed platelets.

SMILES | IC50
Cc1nc2cnccc2n1-c1ccc(-c2nnc(-c3ccccc3)o2)cc1 [2-Methyl-1-[4-(5-phenyl-[1,3,4]oxadiazol-2-yl)-phenyl]-1H-imidazo[4,5-c]pyridine] | 44 nM
Cc1nc2cnccc2n1-c1ccccc1 [2-Methyl-1-phenyl-1H-imidazo[4,5-c]pyridine] | 840 nM
Cc1nc2cnccc2n1-c1ccc(C2=Nc3ccccc3C(=O)CC2)cc1 [2-[4-(2-Methyl-imidazo[4,5-c]pyridin-1-yl)-phenyl]-1,4-dihydro-benzo[b]azepin-5-one] | 15 nM
Cc1nc2cnccc2n1-c1ccc(-c2cc(=O)n3[nH]ccc3n2)cc1 [5-[4-(2-Methyl-imidazo[4,5-c]pyridin-1-yl)-phenyl]-4H-pyrazolo[1,5-a]pyrimidin-7-one] | 2800 nM
Cc1nc2cnccc2n1-c1ccc(C2CC(=O)N(C)c3cc(Cl)c(Cl)cc3C2)cc1 (centres undefined) [7,8-Dichloro-1-methyl-4-[4-(2-methyl-imidazo[4,5-c]pyridin-1-yl)-phenyl]-1,3,4,5-tetrahydro-benzo[b]azepin-2-one] | 0.5 nM
Cc1nc2cnccc2n1-c1ccc(C2CC(=O)Nc3cc(Cl)c(Cl)cc3C2)cc1 (centres undefined) [7,8-Dichloro-4-[4-(2-methyl-imidazo[4,5-c]pyridin-1-yl)-phenyl]-1,3,4,5-tetrahydro-benzo[b]azepin-2-one] | 0.5 nM
Cc1nc2cnccc2n1-c1ccc(C2=Nc3cc(Cl)c(Cl)cc3NC(=S)C2)cc1 [7,8-Dichloro-4-[4-(2-methyl-imidazo[4,5-c]pyridin-1-yl)-phenyl]-1,3-dihydro-benzo[b][1,4]diazepine-2-thione] | 0.5 nM
Cc1cc2c(cc1C)N=C(c1ccc(-n3c(C)nc4cnccc43)cc1)CC(N)=N2 [7,8-Dimethyl-4-[4-(2-methyl-imidazo[4,5-c]pyridin-1-yl)-phenyl]-1,3-dihydro-benzo[b][1,4]diazepin-(2E)-ylideneamine] | 1.9 nM
Cc1nc2cnccc2n1-c1ccc(C2=NCCNC(=O)C2)cc1 [7-[4-(2-Methyl-imidazo[4,5-c]pyridin-1-yl)-phenyl]-1,2,3,4-tetrahydro-[1,4]diazepin-5-one] | 2600 nM

Second part, the compound after the results:

IC50 | SMILES
67 nM | Cc1nc2cnccc2n1-c1ccc(I)cc1 [1-(4-Iodo-phenyl)-2-methyl-1H-imidazo[4,5-c]pyridine]
4.9 nM | Cc1nc2cnccc2n1-c1ccc(C2=Nc3ccccc3N(C)C(=O)C2)cc1 [1-Methyl-4-[4-(2-methyl-imidazo[4,5-c]pyridin-1-yl)-phenyl]-1,3-dihydro-benzo[b][1,4]diazepin-2-one]
200 nM | Cc1nc2cnccc2n1-c1ccc(C2=NC3CCCCC3NC(=O)C2)cc1 (centres undefined) [4-[4-(2-Methyl-imidazo[4,5-c]pyridin-1-yl)-phenyl]-1,5,5a,6,7,8,9,9a-octahydro-benzo[b][1,4]diazepin-2-one]
0.7 nM | Cc1cc2c(cc1C)NC(=O)CC(c1ccc(-n3c(C)nc4cnccc43)cc1)=N2 [7,8-Dimethyl-4-[4-(2-methyl-imidazo[4,5-c]pyridin-1-yl)-phenyl]-1,3-dihydro-benzo[b][1,4]diazepin-2-one]
0.6 nM | Cc1cc2c(cc1C)NC(=S)CC(c1ccc(-n3c(C)nc4cnccc43)cc1)=N2 [7,8-Dimethyl-4-[4-(2-methyl-imidazo[4,5-c]pyridin-1-yl)-phenyl]-1,3-dihydro-benzo[b][1,4]diazepine-2-thione]
